{"source": "patent US12551482B2", "about": "“Aurora kinase inhibitors” (The Regents of the University of California, priority 2013, dated 2026)", "key": {"MYCN [1]": {"tested_on": "MYCN", "test": "MYCN protein by western blot in SK-N-BE(2) cells", "assay_type": "cell-based", "settings": "for efficacy against MYCN (loss of MYCN protein), in words: 24 hrs, 1 μM of compound (FIG. 3)", "procedure": "(§1) Neuroblastoma tumor cell lines were obtained from the University of California San Francisco Cell Culture Facility (Kelly, SK-N-BE2, and SH-EP). SMS-KCN, SHEP MYCN^wt and MYCN^T58A/S62A cells were obtained. All cells were grown in RPMI with 10% FBS. Neuroblastoma cells were harvested and lysed with Cell Signaling Lysis buffer+1% SDS, sonicated and supernatants boiled in LDS sample buffer (Invitrogen). Western blots were performed as described previously (Chanthery et al., 2012), with primary antibodies to MYCN (ab24193, Abcam), Histone H3, P-Histone H3 (S10), Aurora A (Cell signaling), and GAPDH (Millipore). Western blot quantitation performed with ImageJ software."}, "Aurora A": {"molecular_target": "T1, Aurora A (Homo sapiens, UniProt O14965, T287D)", "T1 construct": "Aurora A (residues 123-390, T287D) was cloned into a pET28a plasmid; hexahistidine (PreScission Protease-cleavable) (cleaved yes); made in house; host or cells: E. coli BL-21(DE3)", "T1 sequence (O14965 123-390 T287D)": "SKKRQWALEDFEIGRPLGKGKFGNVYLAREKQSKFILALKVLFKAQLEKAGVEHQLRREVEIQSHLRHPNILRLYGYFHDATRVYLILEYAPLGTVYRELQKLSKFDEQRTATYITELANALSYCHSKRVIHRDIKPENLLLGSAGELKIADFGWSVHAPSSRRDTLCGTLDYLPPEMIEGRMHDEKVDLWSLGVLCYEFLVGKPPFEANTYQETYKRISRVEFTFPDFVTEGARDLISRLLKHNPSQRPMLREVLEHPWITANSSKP", "test": "In vitro kinase assay for Aurora A (32P ATP)", "assay_type": "biochemical", "method": "Kinase assays for Aurora A were performed in 10 mM HEPES pH 7.5, 10 mM MgCl2, 0.01% Triton, 4% v/v DMSO, 5 nM kinase, and either 4 μM histone H3 or 30 μM synthetic peptide [sequence] (Elim Biopharmaceuticals, Inc). Drug concentration ranged from 2000-5 nM. Reactions were preincubated with inhibitor for ten minutes before initiation by addition of 100 μM nonradioactive ATP supplemented with ^32P ATP (1 mCi in 200 μL, Perkin-Elmer, 0.8 ρCi per reaction). Reactions were quenched at 10 min by spotting 3 μL quantity onto P81 phosphocellulose (Whatman), which were washed 5×5′ in 0.1% phosphoric acid and dried. Radioactivity was measured by phosphorimaging and recorded on a Typhoon fluorescence imager (Molecular Dynamics)."}, "p-Histone H3": {"tested_on": "p-Histone H3", "test": "p-Histone H3 by immunoblot in compound-treated cells (structure-activity)", "assay_type": "cell-based", "procedure": "as §1"}, "MYCN [2]": {"tested_on": "MYCN", "test": "MYCN levels in JM134- vs NHC532-treated cells (FIG. 10)", "assay_type": "cell-based"}, "tumor-derived cell lines": {"tested_on": "tumor-derived cell lines", "test": "Screen of panel of tumor-derived, genetically characterized cell lines", "assay_type": "cell-based", "settings": "Wilcoxon Rank Sum test"}, "[3]": {"tested_on": "MYCN amplified neuroblastoma cells", "test": "Cell cycle by flow cytometry", "assay_type": "cell-based", "procedure": "(§2) Neuroblastoma cells were treated for the indicated time, trypsinized, washed, stained with Dylight 800 at 0.3 μg/mL (Pierce, 46421), fixed with 1.5% PFA, and permeabilized with 100% methanol. Cells were then stained with antibodies against p-MPM2 (Millipore, 16-155), p-pan-Aurora (Cell Signaling, 2914), MYCN (Thermo, PA5-17403), rabbit IgG (Invitrogen, A10542), or mouse IgG (BioLegend, 405307). Cells were stained with DAPI at 0.3 μg/mL (Invitrogen, D21490) and analyzed on the BD LSR II flow cytometer. For cell cycle analysis, cells were stimulated with EdU for 2 hours prior to harvest, then probed using the Click-iT EdU Flow Cytometry Assay Kit (Invitrogen, C10424). Cells were stained with propidium iodide (BD, 556547) and analyzed on the BD FACSCalibur flow cytometer. Data was gated using Cytobank. For viability studies, neuroblastoma cells were plated in 96-well plates at a density of 1,000 cells/well for SHEP or 4,000 cells/well for Kelly or SK—N-BE2 cells, then incubated with indicated concentrations of drug for 72 hours at 37° C. Plates were frozen at −80° C. to induce cell lysis. CyQUANT reagent mixture (Invitrogen, C7026) was added to thawed plates, then fluorescence was measured. Alternatively, resazurin (Sigma-Aldrich, R7017) was added directly to wells following drug treatment then incubated for 4 hours at 37° C. prior to measuring fluorescence. Data was analyzed using GraphPad Prism software."}, "phospho-histone H3": {"tested_on": "phospho-histone H3", "test": "Screen of Kelly MYCN-amplified cells, western blot for phospho-histone H3", "assay_type": "cell-based", "settings": "1 μM, 24 hrs", "procedure": "as §1\n(§3) To test whether this panel of 32 putative conformation-disrupting Aurora A inhibitors would destabilize MYCN, initially Kelly MYCN-amplified neuroblastoma cells were treated with candidate inhibitors and MYCN protein was measured by western blot. Phosphorylation of Histone H3, a known substrate for Aurora A and B and a marker for mitosis, was also assessed. FIGS. 1B and 5 show decreased levels of both MYCN protein and p-Histone H3 in response to several members of the screening panel (quantitated in FIG. 1)."}, "[4]": {"tested_on": "Kelly MYCN-amplified neuroblastoma cells", "test": "Viability at 72 hrs, CyQUANT assay", "assay_type": "cell-based", "settings": "FIG. 1F, read-out: cellular EC50 at 72 hrs", "procedure": "as §2, with “Plates were frozen at −80° C. to induce cell lysis.” left out"}, "MYCN [5]": {"tested_on": "MYCN", "test": "Screen of Kelly MYCN-amplified cells, western blot for MYCN", "assay_type": "cell-based", "settings": "1 μM, 24 hrs", "procedure": "as §1, §3"}, "MYCN [6]": {"tested_on": "MYCN", "test": "Dose response immunoblot for MYCN in MYCN-amplified neuroblastoma cell lines (SK-N-BE(2), SMS-KCN, Kelly)", "assay_type": "cell-based", "settings": "multiple cell lines, 24 hrs (FIGS. 1D and 7)", "procedure": "as §1"}, "phospho-pan-Aurora": {"tested_on": "phospho-pan-Aurora", "test": "Phospho-pan-Aurora by flow cytometry", "assay_type": "cell-based", "settings": "1 μM, 6 hrs (FIG. 6C)", "procedure": "as §2"}, "P-Histone H3 (S10)": {"tested_on": "P-Histone H3 (S10)", "test": "Dose response immunoblot for phosphorylation of Histone H3 (S10) in MYCN-amplified neuroblastoma cell lines", "assay_type": "cell-based", "settings": "FIGS. 1D and 7", "procedure": "as §1"}, "Aurora A protein": {"molecular_target": "T2, Aurora A protein (Homo sapiens, UniProt O14965)", "T2 construct": "endogenous in cells; host or cells: SK-N-BE(2), SMS-KCN, Kelly neuroblastoma cells", "T2 sequence (O14965 whole entry)": "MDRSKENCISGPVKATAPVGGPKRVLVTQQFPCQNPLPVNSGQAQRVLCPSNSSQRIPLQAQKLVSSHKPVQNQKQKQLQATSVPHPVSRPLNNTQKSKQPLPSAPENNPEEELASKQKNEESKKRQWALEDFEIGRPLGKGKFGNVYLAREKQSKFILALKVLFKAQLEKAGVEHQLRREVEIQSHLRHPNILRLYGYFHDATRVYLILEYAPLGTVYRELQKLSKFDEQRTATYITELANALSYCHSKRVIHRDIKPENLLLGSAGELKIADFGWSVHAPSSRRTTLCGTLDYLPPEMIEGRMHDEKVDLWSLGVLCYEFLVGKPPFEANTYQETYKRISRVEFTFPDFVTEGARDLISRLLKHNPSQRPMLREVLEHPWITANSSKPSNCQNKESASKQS", "test": "Dose response immunoblot for Aurora A protein in MYCN-amplified neuroblastoma cell lines", "assay_type": "cell-based", "settings": "across cell lines (FIGS. 1D and 7)", "method": "Neuroblastoma tumor cell lines were obtained from the University of California San Francisco Cell Culture Facility (Kelly, SK-N-BE2, and SH-EP). SMS-KCN, SHEP MYCN^wt and MYCN^T58A/S62A cells were obtained. All cells were grown in RPMI with 10% FBS. Neuroblastoma cells were harvested and lysed with Cell Signaling Lysis buffer+1% SDS, sonicated and supernatants boiled in LDS sample buffer (Invitrogen). […] Western blot quantitation performed with ImageJ software."}, "MYCN-Aurora A complex": {"molecular_target": "T3, MYCN-Aurora A complex (Homo sapiens, UniProt O14965)", "T3 construct": "Representative immunoprecipitation of MYCN and immunoblots from MYCN-amplified IMR32 cells; endogenous in cells", "T3 sequence (O14965 whole entry, one chain of several)": "as the sequence (O14965 whole entry) above", "test": "Pulldown of MYCN and immunoblot for Aurora A", "assay_type": "cell-based", "settings": "MYCN-amplified IMR32 cells, 4 hrs MG-132, 2 hrs drug, increasing concentrations"}, "[7]": {"settings": "delivered at the same dose (20 mg/kg); cited from earlier work"}, "MYCN [8]": {"tested_on": "MYCN", "test": "MYCN protein by immunoblot in SHEP cells expressing MYCN", "assay_type": "cell-based", "settings": "SHEP cells expressing MYCNWT, 24 hrs, increasing concentrations (FIG. 12C)", "procedure": "as §1\nMYCN is believed to be sequentially phosphorylated at S62/T58 before it is targeted for degradation by ubiquitination, and only phosphorylated, ubiquitinated MYCN is protected from degradation by Aurora A (Gustafson and Weiss, 2010; Otto et al., 2009)."}}, "note": "“Also recorded” adds a separate entry of the source.", "data": [{"smiles": "Cc1cc(Nc2cc(C3CCCC3)[nH]n2)nc(Nc2ccc(NC(=O)Nc3cccc(C(F)(F)F)c3)cc2)n1", "note": "[CD15, 1-(4-((4-((5-cyclopentyl-1H-pyrazol-3-yl)amino)-6-methylpyrimidin-2-yl)amino)phenyl)-3-(3-(trifluoromethyl)phenyl)urea]", "values": [{"measurement": "efficacy against MYCN (loss of MYCN protein), in words", "setting": "MYCN [1]", "value": "maintained both cell-free potency and efficacy against MYCN"}, {"measurement": "potency against Aurora A (biochemical, cell-free), in words", "setting": "Aurora A", "value": "maintained both cell-free potency and efficacy against MYCN"}]}, {"smiles": "Cc1cc(Nc2cc(C3CCCCC3)[nH]n2)nc(Nc2ccc(NC(=O)Nc3cccc(C(F)(F)F)c3)cc2)n1", "note": "[CD22, 3-[4-({4-[(5-cyclohexyl-1H-pyrazol-3-yl)amino]-6-methylpyrimidin-2-yl}amino)phenyl]-1-[3-(trifluoromethyl)phenyl]urea]", "values": [{"measurement": "efficacy against MYCN (loss of MYCN protein), in words", "setting": "MYCN [1]", "value": "lost both potency against Aurora A and efficacy against MYCN"}, {"measurement": "potency against Aurora A (biochemical, cell-free), in words", "setting": "Aurora A", "value": "lost both potency against Aurora A and efficacy against MYCN"}]}, {"smiles": "Cc1cc(Nc2cc(C3CCCCC3)[nH]n2)nc(Nc2ccc(NC(=O)Nc3ccccc3)cc2)n1", "note": "[CD24, 3-[4-({4-[(5-cyclohexyl-1H-pyrazol-3-yl)amino]-6-methylpyrimidin-2-yl}amino)phenyl]-1-phenylurea]", "values": [{"measurement": "efficacy against MYCN (loss of MYCN protein), in words", "setting": "MYCN [1]", "value": "lost both potency against Aurora A and efficacy against MYCN"}, {"measurement": "potency against Aurora A (biochemical, cell-free), in words", "setting": "Aurora A", "value": "lost both potency against Aurora A and efficacy against MYCN"}]}, {"smiles": "O=C(Nc1ccccc1)Nc1ccc(Nc2nccc(Nc3cc(C4CCCC4)[nH]n3)n2)cc1", "note": "[CD25, 3-[4-({4-[(5-cyclopentyl-1H-pyrazol-3-yl)amino]pyrimidin-2-yl}amino)phenyl]-1-phenylurea]", "values": [{"measurement": "efficacy against MYCN (loss of MYCN protein), in words", "setting": "MYCN [1]", "value": "less effective than CD532 in driving MYCN loss"}, {"measurement": "potency against Aurora A (biochemical, cell-free), in words", "setting": "Aurora A", "value": "retained potency against Aurora Kinase A activity"}, {"measurement": "Histone H3 phosphorylation", "setting": "p-Histone H3; SK-N-BE(2) cells, 24 hrs, 1 μM (FIG. 3D)", "value": "loss of Histone H3 phosphorylation"}]}, {"smiles": "O=C(Nc1ccc(Nc2nccc(Nc3cc(-c4ccco4)[nH]n3)n2)cc1)Nc1cccc(C(F)(F)F)c1", "note": "[JM134, 1-(4-((4-((5-(furan-2-yl)-1H-pyrazol-3-yl)amino)pyrimidin-2-yl)amino)phenyl)-3-(3-(trifluoromethyl)phenyl)urea]", "values": [{"measurement": "increase in biochemical IC50 against Aurora A compared to NHC532 (CD532)", "setting": "Aurora A", "value": 5, "unit": "fold"}, {"measurement": "potency against Aurora A (biochemical, cell-free), in words", "setting": "Aurora A", "value": "decreased binding affinity to Aurora A"}, {"measurement": "MYCN levels compared to NHC532 (CD532)", "setting": "MYCN [2]", "value": "still decreases MYCN levels (though not as completely)"}, {"measurement": "level of p-Histone H3 compared to NHC532-treated cells", "setting": "p-Histone H3; FIG. 10", "value": "higher level of p-Histone H3"}]}, {"smiles": "Cc1sc2c(c1C)C(c1ccc(Cl)cc1)=N[C@@H](CC(=O)OC(C)(C)C)c1nnc(C)n1-2", "note": "[JQ1, reference compound]", "values": [{"measurement": "susceptibility of MYCN amplified vs non-amplified cell lines", "setting": "tumor-derived cell lines", "value": "significantly more susceptible to JQ1 than non-amplified lines"}, {"measurement": "cell cycle effect", "setting": "[3]; 24 hrs of treatment", "value": "blockade of S-phase entry and accumulation of cells in G0/G1"}]}, {"smiles": "COc1cc(Nc2ncc3c(n2)-c2ccc(Cl)cc2C(c2c(F)cccc2OC)=NC3)ccc1C(=O)O", "note": "[MLN8237]", "values": [{"measurement": "p-Histone H3 level", "setting": "phospho-histone H3", "value": "blocked Histone H3 phosphorylation at 1 μM"}, {"measurement": "time dependence of MYCN protein loss", "setting": "MYCN [1]; 1 μM, time course (FIG. 12A)", "value": "similarly rapid, but much more modest decrease in levels of MYCN protein that does not change over time"}, {"measurement": "EC50", "setting": "[4]", "value": 33.9, "unit": "nM"}, {"measurement": "MYCN protein level", "setting": "MYCN [5]", "value": "much more modest effects on levels of MYCN protein"}, {"measurement": "MYCN protein, dose response", "setting": "MYCN [6]", "value": "little or no response to high concentrations; also recorded: little loss of MYCN protein even at doses 100 to 1000 times greater than their IC50 values for Aurora A"}, {"measurement": "phospho-pan-Aurora", "setting": "phospho-pan-Aurora", "value": "loss of phospho-pan-Aurora"}, {"measurement": "cell cycle effect", "setting": "[3]; 4 or 6 hrs of treatment", "value": "G2/M arrest"}, {"measurement": "phosphorylation of Histone H3 at S10, dose response", "setting": "P-Histone H3 (S10)", "value": "initial increase in S10 phosphorylation at lower concentrations, followed by a sharp drop at higher concentrations"}, {"measurement": "Aurora A protein level", "setting": "Aurora A protein", "value": "upregulated or had little effect on Aurora A protein"}, {"measurement": "MYCN-Aurora A interaction", "setting": "MYCN-Aurora A complex", "value": "partial loss of interaction; also recorded: only modestly disrupted this interaction"}, {"measurement": "AUC0-24", "setting": "[7]", "value": 78.4, "unit": "µM·h"}]}, {"smiles": "Cc1cc(Nc2cc(N3CCN(C)CC3)nc(Sc3ccc(NC(=O)C4CC4)cc3)n2)n[nH]1", "note": "[VX-680]", "values": [{"measurement": "p-Histone H3 level", "setting": "phospho-histone H3", "value": "blocked Histone H3 phosphorylation at 1 μM"}, {"measurement": "MYCN protein level", "setting": "MYCN [5]", "value": "much more modest effects on levels of MYCN protein"}, {"measurement": "MYCN protein, dose response", "setting": "MYCN [6]", "value": "little loss of MYCN protein even at doses 100 to 1000 times greater than their IC50 values for Aurora A"}, {"measurement": "phospho-pan-Aurora", "setting": "phospho-pan-Aurora", "value": "loss of phospho-pan-Aurora"}, {"measurement": "cell cycle effect", "setting": "[3]; 4 or 6 hrs of treatment", "value": "G2/M arrest"}, {"measurement": "phosphorylation of Histone H3 at S10, dose response", "setting": "P-Histone H3 (S10)", "value": "abrogates phosphorylation of Histone H3 at S10"}, {"measurement": "wild-type MYCN protein", "setting": "MYCN [8]", "value": "little effect on MYCN protein levels"}]}]}
